Blank lines part the entries; values can stand above or below the molecule they belong to. The source made the active and inactive calls.
Tests used:
[1] = biological target: T1, Neuropeptide Y receptor type 1 (Homo sapiens, UniProt P25929); test: Fluorescence-based counterscreen for agonists of NPY-Y2: cell-based high-throughput dose response assay for agonists of NPY-Y1.; format: functional
T1 sequence (P25929 whole entry): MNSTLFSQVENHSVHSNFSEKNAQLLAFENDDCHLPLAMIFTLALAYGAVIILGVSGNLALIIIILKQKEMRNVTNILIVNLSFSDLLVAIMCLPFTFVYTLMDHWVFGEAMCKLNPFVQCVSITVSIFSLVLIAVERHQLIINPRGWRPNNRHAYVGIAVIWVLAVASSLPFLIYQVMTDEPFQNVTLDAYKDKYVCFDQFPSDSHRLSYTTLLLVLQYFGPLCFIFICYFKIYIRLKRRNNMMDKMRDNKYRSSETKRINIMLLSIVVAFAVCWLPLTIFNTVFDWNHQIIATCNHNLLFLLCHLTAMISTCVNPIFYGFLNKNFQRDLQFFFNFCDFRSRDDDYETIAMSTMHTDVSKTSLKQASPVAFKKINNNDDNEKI

[2] = biological target: T2, Neuropeptide Y receptor type 2 (Homo sapiens, UniProt P49146); test: Fluorescence-based cell-based high-throughput dose response assay for potentiators or agonists of NPY-Y2. [Related pubchem assays: 1539 (Screening assay (NPY-Y2 potentiators or agonists).), 1703 (Screening assay (CNGC inhibitors).), 1359 (Screening assay (NPY-Y2 potentiators or agonists).), 1304 (Screening assay (NPY-Y1 potentiators or agonists).) …; format: functional
T2 sequence (P49146 whole entry): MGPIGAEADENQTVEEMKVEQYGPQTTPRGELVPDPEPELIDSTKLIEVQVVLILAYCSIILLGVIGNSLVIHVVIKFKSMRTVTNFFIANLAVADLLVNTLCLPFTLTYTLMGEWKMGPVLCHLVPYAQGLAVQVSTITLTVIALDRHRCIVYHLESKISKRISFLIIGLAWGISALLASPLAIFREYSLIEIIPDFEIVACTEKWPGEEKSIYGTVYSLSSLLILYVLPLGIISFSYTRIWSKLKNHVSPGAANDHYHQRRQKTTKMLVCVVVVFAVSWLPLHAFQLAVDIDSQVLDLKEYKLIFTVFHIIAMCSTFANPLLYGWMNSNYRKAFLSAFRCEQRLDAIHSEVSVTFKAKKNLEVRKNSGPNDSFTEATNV

[3] = biological target: T2, Neuropeptide Y receptor type 2; test: Fluorescence-based cell-based high-throughput dose response assay for agonists of NPY-Y2. [Related pubchem assays: 1703 (Screening assay (CNGC inhibitors).), 1359 (Screening assay (NPY-Y2 potentiators or agonists).), 1304 (Screening assay (NPY-Y1 potentiators or agonists).), 1710 (Screening assay (NPY-Y2 agonists).), 1791 (Summary AID.)]; format: functional
[4] = biological target: T1, Neuropeptide Y receptor type 1; test: Fluorescence-based counterscreen for potentiators or agonists of NPY-Y2: cell-based high-throughput dose response assay for potentiators or agonists of NPY-Y1.; format: functional
HEK293 = test: Fluorescence-based counterscreen for potentiators or agonists of NPY-Y2: cell-based high-throughput dose response assay to identify inhibitors of cyclic nucleotide gated ion channel (CNGC) activity. In this assay, the parental HEK293 cell line transfected with a cyclic-nucleotide gated ion channel (CNGC)-based cAMP sensor is used to measure inhibition of isoproterenol-induced CNGC activity by test compound.; format: functional; conditions: Homo sapiens;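 note: stimulus is 1 µM isoproterenol at EC100 plus PDE inhibitor Ro 20-1724 at 25 µM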
Staphylococcus aureus = test: Inhibitors of Bacterial Quorum Sensing Structure Activity Relationship (SAR) Analysis: Dose Response Assay. [Related pubchem assays: 700, 527 ]; format: functional, organism-based
Vero [5] = test: Vero cell viability after compound exposure – synthesized analogs, set II, cytotoxicity control for West Nile virus antiviral project, SAR follow-up (AID 2402); format: functional; conditions: Chlorocebus sabaeus
Vero [6] = test: host cell viability loss, Vero E6 – synthesized analogs, cytotoxicity control for West Nile virus antiviral project, SAR follow-up (AID 2244); format: functional; conditions: Chlorocebus sabaeus
[7] = biological target: Sphingosine 1-phosphate receptor 3 (Homo sapiens, UniProt Q99500); test: Dose response cell-based high throughput screening assay for antagonists of the Sphingosine 1-Phosphate Receptor 3 (S1P3). [Related pubchem assays: 1429, 485 ]; format: functional
[8] = biological target: 5-hydroxytryptamine receptor 1E (Homo sapiens, UniProt P28566); test: Counterscreen assay for S1P3 antagonists: Dose response cell-based high throughput screening assay to identify antagonists of the 5-Hydroxytryptamine Receptor Subtype 1E (5HT1E). [Related pubchem assays: 1429, 485 ]; format: functional
[9] = biological target: Signal transducer and activator of transcription 3 (Homo sapiens, UniProt P40763); test: STAT3 activation with BCL3 mRNA and toxicity – cell-based, […], BCL3 qPCR, cytotoxicity, late-stage follow-up, panel member STAT3 Activation (AID 2049)
[10] = biological target: G2/mitotic-specific cyclin-B1 (Homo sapiens, UniProt P14635); test: HeLa cell cycle G2/M accumulation – FACS, mechanism study for Wee1 degradation inhibitor project, late-stage follow-up, panel member Cyclin B Degradation (AID 2088)
Wee1-like protein kinase = Wee1-like protein kinase (Homo sapiens, UniProt P30291); test: HeLa cell cycle G2/M accumulation – FACS, mechanism study for Wee1 degradation inhibitor project, late-stage follow-up, panel member Wee1 Degradation (AID 2088)
[11] = antiviral protection against BTV-induced cell death – arbovirus, BSR cells, confirmation (AID 1250); format: functional;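 note: protection from viral cytopathic effect measured as cell viability by ATP luminescence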
[12] = biological target: T3, Mannose-6-phosphate isomerase (Homo sapiens, UniProt P34949); test: MPI inhibition at elevated mannose 6-phosphate – biochemical, fluorescence intensity, high mannose 6-phosphate, primary screen (AID 1220)
T3 sequence (P34949 whole entry): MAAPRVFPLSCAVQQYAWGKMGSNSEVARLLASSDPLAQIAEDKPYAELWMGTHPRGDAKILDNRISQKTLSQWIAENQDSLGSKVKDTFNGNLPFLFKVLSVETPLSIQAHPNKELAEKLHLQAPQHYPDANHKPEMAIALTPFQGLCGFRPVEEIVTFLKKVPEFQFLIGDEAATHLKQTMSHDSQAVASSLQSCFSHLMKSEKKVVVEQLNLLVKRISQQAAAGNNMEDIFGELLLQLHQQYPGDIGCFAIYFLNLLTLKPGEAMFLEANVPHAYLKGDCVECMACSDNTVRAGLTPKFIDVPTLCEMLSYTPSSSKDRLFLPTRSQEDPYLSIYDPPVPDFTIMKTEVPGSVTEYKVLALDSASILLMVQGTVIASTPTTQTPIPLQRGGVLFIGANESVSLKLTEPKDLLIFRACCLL

[13] = biological target: Induced myeloid leukemia cell differentiation protein Mcl-1 (Homo sapiens, UniProt Q07820); format: functional
[14] = biological target: T3, Mannose-6-phosphate isomerase; test: MPI enzyme activity inhibition – biochemical, fluorescence intensity, coupled assay, primary screen (AID 1209)
Cytochrome P450 3A4 = Cytochrome P450 3A4 (Homo sapiens, UniProt P08684); conditions: Potency;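 note: confirmatory qHTS run detecting inhibitors and substrates of CYP3A4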
[15] = Luminescence Cell-Based Dose Confirmation HTS to Identify Inhibitors of Polyadenylation.; format: functional

Signal transducer and activator of transcription 3, sequence (P40763 whole entry): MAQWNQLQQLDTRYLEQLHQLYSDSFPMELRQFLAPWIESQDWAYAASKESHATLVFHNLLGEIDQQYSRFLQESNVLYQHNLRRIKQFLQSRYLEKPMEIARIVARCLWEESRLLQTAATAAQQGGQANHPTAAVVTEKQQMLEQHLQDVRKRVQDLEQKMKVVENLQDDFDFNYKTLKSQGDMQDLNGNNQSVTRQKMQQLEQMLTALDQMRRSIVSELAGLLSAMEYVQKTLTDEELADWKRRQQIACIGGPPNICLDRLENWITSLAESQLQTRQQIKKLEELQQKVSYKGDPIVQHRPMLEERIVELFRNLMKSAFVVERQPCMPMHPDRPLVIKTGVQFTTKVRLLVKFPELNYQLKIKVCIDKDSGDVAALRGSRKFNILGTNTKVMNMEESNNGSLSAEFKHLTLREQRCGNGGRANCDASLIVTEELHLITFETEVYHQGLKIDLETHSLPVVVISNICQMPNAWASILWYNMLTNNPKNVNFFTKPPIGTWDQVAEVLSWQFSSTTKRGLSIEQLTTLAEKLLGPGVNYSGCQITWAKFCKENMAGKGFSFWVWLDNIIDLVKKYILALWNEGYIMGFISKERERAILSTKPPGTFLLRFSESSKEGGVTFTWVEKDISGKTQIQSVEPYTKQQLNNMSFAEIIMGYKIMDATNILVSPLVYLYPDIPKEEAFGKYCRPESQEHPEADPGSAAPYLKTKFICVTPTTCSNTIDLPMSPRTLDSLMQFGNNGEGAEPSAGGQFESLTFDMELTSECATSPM
Wee1-like protein kinase, sequence (P30291 whole entry): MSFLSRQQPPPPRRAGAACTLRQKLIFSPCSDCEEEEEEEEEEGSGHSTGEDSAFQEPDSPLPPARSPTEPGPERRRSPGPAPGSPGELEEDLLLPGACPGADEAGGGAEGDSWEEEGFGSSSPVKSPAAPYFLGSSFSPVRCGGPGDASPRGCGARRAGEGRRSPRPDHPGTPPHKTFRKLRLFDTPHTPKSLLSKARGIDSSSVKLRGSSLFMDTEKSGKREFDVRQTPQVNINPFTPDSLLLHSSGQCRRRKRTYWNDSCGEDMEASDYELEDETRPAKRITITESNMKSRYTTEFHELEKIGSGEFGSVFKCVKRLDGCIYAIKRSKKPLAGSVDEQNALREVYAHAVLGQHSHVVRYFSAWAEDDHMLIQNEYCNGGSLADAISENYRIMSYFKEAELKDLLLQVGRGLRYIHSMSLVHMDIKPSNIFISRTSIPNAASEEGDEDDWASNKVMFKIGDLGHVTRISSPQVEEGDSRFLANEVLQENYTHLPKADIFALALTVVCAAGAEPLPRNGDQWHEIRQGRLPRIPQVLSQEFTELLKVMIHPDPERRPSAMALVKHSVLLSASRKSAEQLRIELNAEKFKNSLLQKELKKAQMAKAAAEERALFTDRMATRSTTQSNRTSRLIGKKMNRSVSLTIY
Sphingosine 1-phosphate receptor 3, sequence (Q99500 whole entry): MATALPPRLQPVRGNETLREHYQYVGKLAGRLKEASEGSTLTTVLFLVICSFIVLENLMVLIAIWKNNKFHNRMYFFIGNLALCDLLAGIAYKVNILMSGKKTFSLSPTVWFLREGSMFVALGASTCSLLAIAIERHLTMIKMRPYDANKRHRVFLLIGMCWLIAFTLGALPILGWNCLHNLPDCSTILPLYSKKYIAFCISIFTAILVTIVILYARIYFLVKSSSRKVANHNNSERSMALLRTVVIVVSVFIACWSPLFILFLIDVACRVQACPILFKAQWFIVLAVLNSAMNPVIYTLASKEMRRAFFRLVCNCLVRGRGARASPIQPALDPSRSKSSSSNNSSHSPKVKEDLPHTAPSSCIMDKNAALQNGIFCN
Induced myeloid leukemia cell differentiation protein Mcl-1, sequence (Q07820 whole entry): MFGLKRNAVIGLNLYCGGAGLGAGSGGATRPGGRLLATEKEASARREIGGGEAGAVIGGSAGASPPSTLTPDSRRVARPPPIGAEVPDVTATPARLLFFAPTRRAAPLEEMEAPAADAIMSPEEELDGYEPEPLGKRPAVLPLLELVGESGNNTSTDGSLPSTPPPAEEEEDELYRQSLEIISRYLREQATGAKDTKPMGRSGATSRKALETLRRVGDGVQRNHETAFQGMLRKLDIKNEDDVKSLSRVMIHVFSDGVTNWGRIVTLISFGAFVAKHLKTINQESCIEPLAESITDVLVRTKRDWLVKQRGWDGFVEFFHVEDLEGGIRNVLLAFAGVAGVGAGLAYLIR
G2/mitotic-specific cyclin-B1, sequence (P14635 whole entry): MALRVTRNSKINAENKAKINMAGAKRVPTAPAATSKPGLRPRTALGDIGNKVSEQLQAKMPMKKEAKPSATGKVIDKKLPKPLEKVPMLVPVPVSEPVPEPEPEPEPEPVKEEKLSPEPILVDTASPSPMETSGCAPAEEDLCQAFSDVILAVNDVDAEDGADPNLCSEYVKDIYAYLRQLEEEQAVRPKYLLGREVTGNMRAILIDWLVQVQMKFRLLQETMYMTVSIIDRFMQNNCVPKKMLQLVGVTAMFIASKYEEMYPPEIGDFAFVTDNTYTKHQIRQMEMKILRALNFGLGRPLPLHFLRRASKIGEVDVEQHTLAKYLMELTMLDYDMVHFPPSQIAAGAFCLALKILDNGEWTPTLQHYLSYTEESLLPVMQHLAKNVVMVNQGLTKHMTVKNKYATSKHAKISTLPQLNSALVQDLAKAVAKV
5-hydroxytryptamine receptor 1E, sequence (P28566 whole entry): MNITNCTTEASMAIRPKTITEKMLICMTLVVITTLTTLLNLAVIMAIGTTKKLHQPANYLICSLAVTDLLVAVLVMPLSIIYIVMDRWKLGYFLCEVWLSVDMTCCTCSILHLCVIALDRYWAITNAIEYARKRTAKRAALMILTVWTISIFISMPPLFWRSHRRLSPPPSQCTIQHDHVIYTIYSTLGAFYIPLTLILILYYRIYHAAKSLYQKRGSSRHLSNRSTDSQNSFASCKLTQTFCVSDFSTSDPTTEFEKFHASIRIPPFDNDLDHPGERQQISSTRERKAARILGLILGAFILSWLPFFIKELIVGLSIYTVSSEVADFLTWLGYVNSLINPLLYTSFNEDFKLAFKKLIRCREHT
Cytochrome P450 3A4, sequence (P08684 whole entry): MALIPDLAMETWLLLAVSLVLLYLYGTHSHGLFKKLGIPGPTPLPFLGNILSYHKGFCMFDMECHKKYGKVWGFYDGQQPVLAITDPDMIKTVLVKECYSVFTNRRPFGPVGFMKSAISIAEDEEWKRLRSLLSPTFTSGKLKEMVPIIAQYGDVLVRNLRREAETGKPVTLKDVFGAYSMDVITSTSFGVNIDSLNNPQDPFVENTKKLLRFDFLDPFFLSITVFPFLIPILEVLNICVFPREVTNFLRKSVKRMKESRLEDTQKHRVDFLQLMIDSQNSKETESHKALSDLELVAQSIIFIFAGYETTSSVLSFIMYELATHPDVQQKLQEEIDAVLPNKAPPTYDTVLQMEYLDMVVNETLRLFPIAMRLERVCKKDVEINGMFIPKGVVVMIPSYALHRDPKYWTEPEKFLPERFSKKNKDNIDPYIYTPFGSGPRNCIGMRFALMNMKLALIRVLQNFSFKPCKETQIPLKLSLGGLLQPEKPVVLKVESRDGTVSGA

SMILES: Cc1cccc2c(N)c3c(nc12)CCCC3.O=C(O)c1cc([N+](=O)[O-])ccc1Cl
EC50 [1]: 3.41 µM (active)
EC50 [2]: 5.24 µM (active)
EC50 [3]: 3.65 µM (active)
EC50 [4]: 5.53 µM (active)
EC50 (HEK293): 8.74 µM (active)

SMILES: CC(C)c1ccc(NC(=O)C(c2ccc3c(c2)OCO3)N2CCCCC2)cc1 (centres undefined)
IC50 (Staphylococcus aureus): 0.254 µM (active)

SMILES: O=c1c2cc(Cl)cc(Cl)c2nc2n1CCC2
CC50 (Vero [5]): > 100 µM (active)
CC50 (Vero [6]): > 40 µM (active)

IC50 [7]: > 50 µM (not active)
IC50 [8]: > 50 µM (not active)
SMILES: CSc1ccccc1NC(=O)C1CC(c2ccccc2O)=NO1 (centres undefined)

SMILES: COc1ccc(OC)c(NC(=O)c2cc(CN3CCCC3)on2)c1
EC50 [9]: > 55.7 µM (inactive)

EC50 [10]: > 49.7 µM (inactive)
EC50 (Wee1-like protein kinase): > 49.7 µM (inactive)
SMILES: Cc1cccc(CC(=O)Nc2cc(C)nn2-c2nc(C)cc(=O)[nH]2)c1

IC50 [12]: > 50 µM (not active)
IC50 [13]: > 54 µM (not active)
IC50 [14]: > 50 µM (not active)
SMILES: Cc1cc(/N=C/c2c(O)ccc3cc(Br)ccc23)no1
IC50 [11]: 31.8 µM (active)

AC50 (Cytochrome P450 3A4): 12.6 µM (inconclusive)
SMILES: C[C@@H]1CCC2[C@@H](C)[C@@H](O)O[C@@H]3O[C@@]4(C)CC[C@@H]1[C@@]23OO4 (some centres undefined)

SMILES: CC(C)=CCOc1c2ccoc2cc2oc(=O)ccc12 [ISOIMPERATORIN]
EC50 [15]: > 120 µM (not active)

Source: ChEMBL document CHEMBL1201862, “PubChem BioAssay data set” (2004)
